Consider 20 compounds from patent US9765075B2, “Substituted bridged urea analogs as sirtuin modulators” (GLAXOSMITHKLINE LLC, priority 2013, dated 2017).

The structures appear in SMILES notation. Read-outs that look alike come from different tables or passages of the source.

One assay has as its target mini-hSIRT1. Nature of the assay: Inhibition of mini-hSIRT1 constructs compared with the full-length enzyme. Format: biochemical, human. Here is the method:
Final concentrations of the PNC1/GDH coupling system components used were 20 units/mL bovine GDH (Sigma-Aldrich), 1 uM yeast PNC1, 3.4 mM α-ketoglutarate, and 220 μM NADH or NADPH. An extinction coefficient of 6.22 mM^−1 cm^−1 and a pathlength of 0.81 cm was used to convert the absorbance at 340 nm to product concentration for the 150 uL reactions used. […] Quenched reactions were diluted 5-fold with 1:1 acetonitrile:methanol and spun at 5,000×g for 10 minutes to precipitate protein before being analyzed with an Agilent RapidFire 200 High-Throughput Mass Spectrometry System (Agilent, Wakefield, Mass.) coupled to an ABSciex API 4000 mass spectrometer fitted with an electrospray ionization source. The p53-based Ac-p53(W5) (Ac-RHKK^AcW-NH2) and FOXO-3a 21-mer (Ac-[…]^Ac[…]-NH2) peptides were obtained from Biopeptide, Inc. Deacetylation assays used the Ac-p53(W5) substrate unless otherwise noted.
Substrate KM determinations were performed by varying one substrate concentration at a fixed, saturating concentration of the second substrate. SIRT1 activation and inhibition assays were run in reaction buffer with 0.05% BSA at 25° C. and analyzed using the OAcADPr assay. Enzyme and compound were pre-incubated for 20 minutes before addition of substrates. […]

The target of the next assay is T1, SIRT1 (Homo sapiens, UniProt Q96EB6).
T1 sequence (Q96EB6 1-747): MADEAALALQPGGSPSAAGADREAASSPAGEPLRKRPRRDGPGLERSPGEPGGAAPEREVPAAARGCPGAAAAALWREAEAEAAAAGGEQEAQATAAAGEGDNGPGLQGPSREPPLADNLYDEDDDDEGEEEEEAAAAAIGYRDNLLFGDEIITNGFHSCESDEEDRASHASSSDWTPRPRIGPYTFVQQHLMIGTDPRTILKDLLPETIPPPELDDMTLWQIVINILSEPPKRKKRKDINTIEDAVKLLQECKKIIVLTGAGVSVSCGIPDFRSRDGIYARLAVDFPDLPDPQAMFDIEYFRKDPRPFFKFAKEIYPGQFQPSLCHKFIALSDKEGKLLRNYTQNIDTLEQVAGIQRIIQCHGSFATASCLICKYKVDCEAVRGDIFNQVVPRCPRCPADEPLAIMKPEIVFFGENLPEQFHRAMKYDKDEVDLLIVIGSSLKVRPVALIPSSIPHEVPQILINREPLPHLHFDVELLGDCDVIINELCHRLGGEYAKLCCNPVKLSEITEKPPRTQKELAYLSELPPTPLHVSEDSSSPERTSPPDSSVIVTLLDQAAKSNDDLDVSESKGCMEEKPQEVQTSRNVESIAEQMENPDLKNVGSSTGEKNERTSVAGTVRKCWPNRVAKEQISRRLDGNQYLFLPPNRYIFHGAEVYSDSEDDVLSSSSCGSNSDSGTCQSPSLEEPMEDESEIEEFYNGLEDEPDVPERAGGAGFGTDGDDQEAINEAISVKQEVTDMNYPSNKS
Nature of the assay: Trp mass spectrometry assay (SIRT1 activation). Format: biochemical. To be noted: for Emax: percent maximum fold activation of SIRT1, read-out: Tryp % Fold Act. In short, it runs like this: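 Activation is expressed as EC1.5, the concentration raising activity 50% above DMSO control, and as maximum percent of control. Mass-spec readout was OAADPR or deacetylated Trp peptide after a formic-acid-quenched 25-min, 25 °C reaction: 10 nM bacterially expressed His-SIRT1, 0.5 μM acetyl-p53-derived peptide, 120 μM NAD+, pH 7.5 HEPES with […].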

Setting [1] is: concentration of test compound that results in 150% activation of SIRT1, Trp peptide substrate.
The mark [2] stands for this setting: Trp mass spectrometry assay, EC1.5 = concentration giving 150% activation of SIRT1.

For the compound `NC(=O)c1cccnc1` [NAM, nicotinamide], the “IC50 values, mini-hSIRT1 constructs versus full-length enzyme” value at mini-hSIRT1 is recorded as “comparable”.

For `O=C(Nc1ccncn1)N1c2nc(-c3cccc(Cl)c3)ccc2N2CCC1CC2` [Example 534], the “Tryp AVG EC1.5 (μM)” value on SIRT1 (setting [1]) is on record as “B (EC1.5 1-25 μM)”. Also, the Emax on SIRT1 (Trp peptide substrate) was ≥ 150%. For `Cc1n[nH]c(C)c1-c1ccc2c(n1)N(C(=O)Nc1cccnc1)[C@H]1CCN2C1` [Example 525], the “Tryp AVG EC1.5 (μM)” value at SIRT1 (setting [1]) was “B (EC1.5 1-25 μM)”. For the same compound, on SIRT1 (Trp peptide substrate), the Emax is ≥ 150%. On the same counts, the results for `CN(C)Cc1cccc(-c2ccc3c(n2)N(C(=O)Nc2ccccn2)[C@H]2CCN3C2)c1` [Example 343] are “B (EC1.5 1-25 μM)” and ≥ 150%.

Regarding `O=C(Nc1ccncn1)N1c2nc(-c3cncc(C(F)(F)F)c3)ccc2N2CC[C@H]1C2` [Example 276], on SIRT1 (setting [1]), the “Tryp AVG EC1.5 (μM)” value is “A (EC1.5<1 μM)”. The Emax at SIRT1 (Trp peptide substrate) was ≥ 150%. Take `COc1nccc(NC(=O)N2c3nc(-c4cccc(C(F)(F)F)c4)ccc3N3CCC[C@H]2C3)n1` [Example 32]: the Emax on SIRT1 (Trp mass spectrometry assay) is ≥ 150%. Take `CC(C)(C)OC(=O)NCC#Cc1cc(NC(=O)N2c3nc(-c4cccc(C(F)(F)F)c4)ccc3N3CC[C@H]2C3)cc(-c2cnco2)c1` [Example 749]: the “Tryp AVG EC1.5 (μM)” value at SIRT1 (setting [2]) is reported as “A (EC1.5<1 μM)”. The Emax at SIRT1 (Trp mass spectrometry assay) was ≥ 150%. Turning to `CC(C)(C)OC(=O)NCCCc1ccc(NC(=O)N2c3nc(-c4cccc(C(F)(F)F)c4)ccc3N3CC[C@H]2C3)cc1-c1cnco1` [Example 750], the “Tryp AVG EC1.5 (μM)” value at SIRT1 (setting [2]) is “A (EC1.5<1 μM)”. The Emax at SIRT1 (Trp mass spectrometry assay) is ≥ 150%. The corresponding values for `NCCCCCC(=O)NCc1cccc(NC(=O)N2c3nc(-c4cccc(C(F)(F)F)c4)ccc3N3CC[C@H]2C3)c1` [Example 758] are “A (EC1.5<1 μM)” and ≥ 150%. Consider `O=C(Nc1cnccn1)N1c2nc(N3CCCC(C(F)(F)F)C3)ccc2N2CCC[C@@H]1C2` (stereo partly shown) [Example 307], for which the “Tryp AVG EC1.5 (μM)” value at SIRT1 (setting [1]) is “B (EC1.5 1-25 μM)”. Moreover, the Emax on SIRT1 (Trp peptide substrate) is ≥ 150%. For the compound `CCC(=O)c1cccc(NC(=O)N2c3nc(-c4cccc(C(F)(F)F)c4)ccc3N3CC[C@H]2C3)c1` [Example 714], the “Tryp AVG EC1.5 (μM)” value on SIRT1 (setting [2]) is recorded as “A (EC1.5<1 μM)”. Besides, the Emax on SIRT1 (Trp mass spectrometry assay) is ≥ 150%.

`C#Cc1ccc(NC(=O)N2c3nc(-c4ccc(C5(C(F)(F)F)N=N5)cc4)ccc3N3CC[C@H]2C3)nc1` [Example 807]: at SIRT1 (setting [2]), the “Tryp AVG EC1.5 (μM)” value was “C (EC1.5>25 μM)”. Also, the Emax on SIRT1 (Trp mass spectrometry assay) is < 150%. With `O=C(Nc1nnc(-c2ccccn2)o1)N1c2nc(-c3cccc(C(F)(F)F)c3)ccc2N2CC[C@H]1C2` [Example 720], the “Tryp AVG EC1.5 (μM)” value on SIRT1 (setting [2]) is “A (EC1.5<1 μM)”. In addition, the Emax at SIRT1 (Trp mass spectrometry assay) was ≥ 150%. On to `Cc1cc(NC(=O)N2c3nc(N4CCCC(C(F)(F)F)C4)ccc3N3CC[C@H]2C3)cc(C)n1` (stereo partly shown) [Example 231], for which the “Tryp AVG EC1.5 (μM)” value on SIRT1 (setting [1]) was “B (EC1.5 1-25 μM)”. Further, at SIRT1 (Trp peptide substrate), the Emax was ≥ 150%.

Take `CC(C)(C)OC(=O)N1CCc2ccc(NC(=O)N3c4nc(-c5cccc(C(F)(F)F)c5)ccc4N4CC[C@H]3C4)cc2C1` [Example 609]: at SIRT1 (setting [1]), the “Tryp AVG EC1.5 (μM)” value is “B (EC1.5 1-25 μM)”. In addition, at SIRT1 (Trp peptide substrate), the Emax is ≥ 150%. On the same counts, the results for `O=C(Nc1ccccn1)N1c2nc(-c3cc(F)cc(C(F)(F)F)c3)ccc2N2CC[C@H]1C2` [Example 333] are “A (EC1.5<1 μM)” and ≥ 150%. Regarding `N#Cc1cccc(-c2ccc3c(n2)N(C(=O)Nc2ccccn2)[C@H]2CCN3C2)c1` [Example 139], the “Tryp AVG EC1.5 (μM)” value on SIRT1 (Trp mass spectrometry assay, EC1.5 = concentration of test compound that results in 150% activation of SIRT1) is listed as “A (EC1.5<1 μM)”. The Emax at SIRT1 (Trp mass spectrometry assay) was ≥ 150%. Consider `CCCC(=O)c1cccc(NC(=O)N2c3nc(-c4cccc(C(F)(F)F)c4)ccc3N3CC[C@H]2C3)c1` [Example 736], for which the “Tryp AVG EC1.5 (μM)” value at SIRT1 (setting [2]) is reported as “A (EC1.5<1 μM)”. Besides, the Emax on SIRT1 (Trp mass spectrometry assay) is ≥ 150%. In the case of `O=C(Nc1nccc(N2CCNCC2)n1)N1c2nc(-c3cccc(C(F)(F)F)c3)ccc2N2CC[C@H]1C2` [Example 745], on SIRT1 (setting [2]), the “Tryp AVG EC1.5 (μM)” value was “B (EC1.5 1-25 μM)”. On SIRT1 (Trp mass spectrometry assay), the Emax is ≥ 150%.

As to `CC(C)(C)c1ccccc1NC(=O)N1c2nc(-c3cccc(C(F)(F)F)c3)ccc2N2CC[C@H]1C2` [Example 70], the Emax at SIRT1 (Trp mass spectrometry assay) was < 150%.
